# Reference: patent US11559575B2, “Multi-epitopic peptide compounds and vaccines against leishmaniasis” (INSTITUT DE RECHERCHE POUR LE DEVELOPPEMENT, priority 2018, dated 2023)
# Entries after “also recorded” stand apart in the source; their conditions may differ.
# System: HLA alleles of class II
# Test: Affinity of epitopes for HLA alleles of class II
# Type: binding, human
# Settings: H2B-II core epitopes, Table 1
# Description: The multiepitopic peptide compounds (24 to 40-mer), having a high affinity with a maximized number of HLA molecules of class I and of class II, such as the affinities for the alleles HLA of class I and HLA of class II of the epitopes in the peptides of the sequences SEQ ID NO: 22, 23, 65, 66, 69, 73, 77, 96, 97, 137, 138, and 157, 185, have a high immunoprevalent potential corresponding to an optimal vaccine coverage, in particular for the populations concerned. The degree of coverage of the peptide compounds of the invention show a very high added value compared with the peptides of the prior art.
row,Sequence,Affinity HLA alleles of class II
1,VGRSLKAIN (Leishmania major) [SEQ ID NO: 51],"HLA-DRB1*03:01,; also recorded: HLA-DRB1*04:05,; also recorded: HLA-DRB1*08:02,; also recorded: HLA-DRB1*11:01"
2,WNVYVGRSL (Leishmania major) [SEQ ID NO: 53],"HLA-DRB1*04:05,; also recorded: HLA-DRB1*07:01,; also recorded: HLA-DRB1*09:01,; also recorded: HLA-DRB1*15:01,; also recorded: HLA-DRB5*01:01"
3,NAQMSMSHR (Leishmania major) [SEQ ID NO: 46],HLA-DRB1*01:01

# Same assay, conditions: H2B-II peptides, Table 1
row,Sequence,Concatenation affinity for the HLA alleles of class II
1,INAQMSMSHRTMKIV (Leishmania major) [SEQ ID NO: 41],"HLA-DRB1*04:01, HLA-DRB1*15:01, HLA-DRB1*05:01,; also recorded: HLA-DRB1*03:01, HLA-DRB1*09:01, HLA-DRB1*11:01,; also recorded: HLA-DRB1*01:01, HLA-DRB4*01:01, HLA-DRB1*07:01,; also recorded: HLA-DRB1*13:02"
2,GRSLKAINAQMSMSH (Leishmania major) [SEQ ID NO: 35],"HLA-DRB1*15:01, HLA-DRB1*01:01, HLA-DRB1*04:05,; also recorded: HLA-DRB1*07:01, HLA-DRB1*08:02, HLA-DRB1*09:01,; also recorded: HLA-DRB1*11:01, HLA-DRB4*01:01, HLA-DRB5*01:01,; also recorded: HLA-DRB1*04:01, HLA-DRB1*13:02"
3,RKPKRSWNVYVGRSL (Leishmania major) [SEQ ID NO: 24],"HLA-DRB1*13:02, HLA-DRB1*01:01, HLA-DRB1*07:01,; also recorded: HLA-DRB1*09:01, HLA-DRB1*15:01"
4,WNVYVGRSLKAINAQ (Leishmania major) [SEQ ID NO: 30],"HLA-DRB5*01:01, HLA-DRB1*04:05, HLA-DPA1*03:01/; also recorded: DPB1*04:02, HLA-DRB1*01:01, HLA-DRB1*03:01,; also recorded: HLA-DRB1*04:01, HLA-DRB1*11:01, HLA-DRB1*07:01,; also recorded: HLA-DRB9*01:01, HLA-DRB1*15:01, HLA-DPA1*02:01/; also recorded: DPB1*01:01, HLA-DRB1*08:02"
5,RSWNVYVGRSLKAIN (Leishmania major) [SEQ ID NO: 28],"HLA-DRB5*01:01, HLA-DRB1*01:01, HLA-DRB1*03:01,; also recorded: HLA-DRB1*04:01, HLA-DRB1*11:01, HLA-DRB1*13:02,; also recorded: HLA-DRB1*04:05, HLA-DRB1*07:01, HLA-DRB1*09:01,; also recorded: HLA-DRB1*15:01, HLA-DPA1*02:01/DPB1*01:01,; also recorded: HLA-DRB1*08:02"
6,VYVGRSLKAINAQMS (Leishmania major) [SEQ ID NO: 32],"HLA-DRB1*01:01, HLA-DRB1*04:05, HLA-DRB1*07:01,; also recorded: HLA-DRB4*01:01, HLA-DRB1*04:01, HLA-DRB1*09:01,; also recorded: HLA-DRB1*03:01, HLA-DRB1*11:01, HLA-DRB1*15:01,; also recorded: HLA-DRB1*08:02"
7,AINAQMSMSHRTMKI (Leishmania major) [SEQ ID NO: 40],"HLA-DRB1*01:01, HLA-DRB1*04:01, HLA-DRB1*09:01,; also recorded: HLA-DRB1*15:01, HLA-DRB4*01:01, HLA-DRB5*01:01,; also recorded: HLA-DRB3*01:01, HLA-DRB1*11:01, HLA-DRB1*07:01"
8,KRSWNVYVGRSLKAI (Leishmania major) [SEQ ID NO: 27],"HLA-DRB1*01:01, HLA-DRB1*03:01, HLA-DRB1*04:01,; also recorded: HLA-DRB1*11:01, HLA-DRB1*13:02, HLA-DRB1*07:01,; also recorded: HLA-DRB1*09:01, HLA-DRB1*15:01, HLA-DRB5*01:01,; also recorded: HLA-DPA1*02:01/DPB1*01:01"
9,NVYVGRSLKAINAQM (Leishmania major) [SEQ ID NO: 31],"HLA-DRB1*04:01, HLA-DRB4*01:01, HLA-DRB1*03:01,; also recorded: HLA-DRB1*04:05, HLA-DRB1*11:01, HLA-DRB1*01:01,; also recorded: HLA-DRB1*09:01, HLA-DRB1*15:01, HLA-DRB1*08:02"
10,LKAINAQMSMSHRTM (Leishmania major) [SEQ ID NO: 38],"HLA-DRB1*07:01, HLA-DRB1*04:01, HLA-DRB1*04:05,; also recorded: HLA-DRB1*09:01, HLA-DRB1*11:01, HLA-DRB1*15:01,; also recorded: HLA-DRB5*01:01, HLA-DRB1*01:01, HLA-DRB4*01:01,"

# Same assay, conditions: LmLRAB-IIA peptides, Table 2
row,Sequence,Concatenation affinity for HLA alleles of class II
1,SVVGRHLSIVADHMP (Leishmania major) [SEQ ID NO: 83],HLA-DRB1*15:01

# Same assay, conditions: LmlRAB-IIB core, Table 2
row,Sequence,Concatenation affinity for HLA alleles of class II
1,YSEVSAKTK (Leishmania major) [SEQ ID NO: 127],"HLA-DRB1*07:01,; also recorded: HLA-DRB5*01:01"
2,HYSEVSAKT (Leishmania major) [SEQ ID NO: 122],HLA-DRB1*04:01
3,IVTSRKVQE (Leishmania major) [SEQ ID NO: 123],"HLA-DRB1*03:01,; also recorded: HLA-DRB1*08:02,; also recorded: HLA-DRB1*11:01"
4,NAIVTSRKV (Leishmania major) [SEQ ID NO: 125],HLA-DRB1*07:01

# Same assay, conditions: LmlRAB-IIB peptides, Table 2
row,Sequence,Concatenation affinity for HLA alleles of class II
1,LFTDVHYSEVSAKTK (Leishmania major) [SEQ ID NO: 108],"HLA-DRB1*01:01, HLA-DRB1*04:01,; also recorded: HLA-DRB1*07:01, HLA-DRB1*09:01,; also recorded: HLA-DRB5*01:01, HLA-DPA1*01:03/DPB1*02:01,; also recorded: HLA-DPA1*01/DPB1*04:01,; also recorded: HLA-DPA1*02:01/HLA-DPB1*14:01"
2,FDLFTDVHYSEVSAK (Leishmania major) [SEQ ID NO: 103],"HLA-DRB1*01:01, HLA-DRB1*03:01,; also recorded: HLA-DRB1*07:01, HLA-DRB1*09:01,; also recorded: HLA-DPA1*03:01/DPB1*04:02,; also recorded: HLA-DPA1*02:01/HLA-DPB1*14:01"
3,RKVQEEVFDLFTDVH (Leishmania major) [SEQ ID NO: 111],"HLA-DRB1*03:01, HLA-DRB1*04:01,; also recorded: HLA-DPA1*02:01/DPB1*05:01,; also recorded: HLA-DPA1*03:01/DPB1*04:02"
4,KGRSENAIVTSRKVQ (Leishmania major) [SEQ ID NO: 106],"HLA-DRB1*01:01, HLA-DRB1*07:01,; also recorded: HLA-DRB1*11:01, HLA-DRB1*12:01,; also recorded: HLA-DRB5*01:01"
5,SENAIVTSRKVQEEV (Leishmania major) [SEQ ID NO: 113],"HLA-DRB1*03:01, HLA-DRB1*07:01,; also recorded: HLA-DRB1*08:02, HLA-DRB1*11:01,; also recorded: HLA-DRB1*12:01"
6,TSRKVQEEVFDLFTD (Leishmania major) [SEQ ID NO: 115],"HLA-DRB1*03:01, HLA-DPA1*01:03/DPB1*02:01,; also recorded: HLA-DPA1*02:01/DPB1*05:01,; also recorded: HLA-DPA1*03:01/HLA-DPB1*04:02,; also recorded: HLA-DPA1*02:01/HLA-DPB1*14:01"
7,NAIVTSRKVQEEVFD (Leishmania major) [SEQ ID NO: 109],"HLA-DRB1*03:01, HLA-DRB1*07:01,; also recorded: HLA-DRB1*08:02, HLA-DRB1*11:01,; also recorded: HLA-DRB1*12:01"
8,EEVFDLFTDVHYSEV (Leishmania major) [SEQ ID NO: 100],"HLA-DRB1*01:01, HLA-DRB1*03:01,; also recorded: HLA-DRB1*04:01, HLA-DRB1*04:05,; also recorded: HLA-DRB1*07:01, HLA-DRB1*15:01,; also recorded: HLA-DRB1*12:01, HLA-DRB3*01:01,; also recorded: HLA-DPA1*01:03/DPB1*02:01,; also recorded: HLA-DPA1*01/DPB1*04:01, HLA-DPA1*02:01/; also recorded: HLA-DPB1*14:01"

# Same assay, conditions: PSA KC-2.6 core, Table 3
row,Sequence,Concatenation affinity for HLA alleles of class II
1,YFLTDEKTS (listed as Leishmania infantum) [SEQ ID NO: 150],"HLA-DRB1*04:01,; also recorded: HLA-DRB1*11:01"
2,GYFLTDEKT (listed as Leishmania infantum) [SEQ ID NO: 147],"HLA-DRB1*04:01,; also recorded: HLA-DPA1*02:01/; also recorded: DPB1*01:01"

# Same assay, conditions: PSA KC-2.6 peptides, Table 3
row,Sequence,Concatenation affinity for HLA alleles of class II
1,GEGYFLTDEKTSLVY (listed as Leishmania infantum) [SEQ ID NO: 141],"HLA-DRB1*01:01, HLA-DRB1*03:01,; also recorded: HLA-DRB1*04:01, HLA-DRB1*04:05,; also recorded: HLA-DRB1*07:01, HLA-DRB1*11:01,; also recorded: HLA-DRB1*12:01, HLA-DRB1*13:02,; also recorded: HLA-DRB3*01:01, HLA-DRB3*02:02,; also recorded: HLA-DPA1*03:01/DPB1*04:02,; also recorded: HLA-DPA1*02:01/HDPB1*14:01"
2,EGYFLTDEKTSLVYG (listed as Leishmania infantum) [SEQ ID NO: 139],"HLA-DRB1*12:01, HLA-DRB1*13:02,; also recorded: HLA-DRB3*01:01, HLA-DRB3*02:02,; also recorded: HLA-DPA1*03:01/DPB1*04:02; also recorded: HLA-DRB1*01:01, HLA-DRB1*03:01,; also recorded: HLA-DRB1*04:01, HLA-DRB1*04:05,; also recorded: HLA-DRB1*07:01, HLA-DRB1*11:01,"
3,GYFLTDEKTSLVYGD (listed as Leishmania infantum) [SEQ ID NO: 142],"HLA-DRB1*01:01, HLA-DRB1*03:01,; also recorded: HLA-DRB1*04:01, HLA-DRB1*07:01,; also recorded: HLA-DRB1*11:01, HLA-DRB3*01:01,; also recorded: HLA-DRB3*02:02,; also recorded: HLA-DPA1*02:01/DPB1*14:01,; also recorded: HLA-DPA1*03:01/DPB1*04:02"
4,YFLTDEKTSLVYGDG (listed as Leishmania infantum) [SEQ ID NO: 145],"HLA-DRB1*01:01, HLA-DRB1*03:01,; also recorded: HLA-DRB1*04:01, HLA-DRB3*01:01,; also recorded: HLA-DRB3*02:02,; also recorded: HLA-DPA1*03:01/DPB1*04:02,; also recorded: HLA-DPA1*02:01/DPB1*14:01"

# Same assay, conditions: PSA KC-2.7 core, Table 3
row,Sequence,Concatenation affinity for HLA alleles of class II
1,FSNMGLLLS (listed as Leishmania infantum) [SEQ ID NO: 172],HLA-DRB1*11:01
2,MIRDLDFSN (listed as Leishmania infantum) [SEQ ID NO: 176],"HLA-DRB1*03:01,; also recorded: HLA-DRB1*04:01,; also recorded: HLA-DRB1*04:05,; also recorded: HLA-DRB1*08:02"

# Same assay, conditions: PSA KC-2.7 peptides, Table 3
row,Sequence,Concatenation affinity for HLA alleles of class II
1,GSDYSHSMIRDLDFS (listed as Leishmania infantum) [SEQ ID NO: 159],"HLA-DRB1*01:01, HLA-DRB1*04:05,; also recorded: HLA-DRB1*07:01, HLA-DRB1*09:01,; also recorded: HLA-DRB4*01:01, HLA-DRB5*01:01,; also recorded: HLA-DPA1*02:01/DPB1*14:01"
2,YSHSMIRDLDFSNMG (listed as Leishmania infantum) [SEQ ID NO: 170],"HLA-DRB1*04:01, HLA-DRB1*04:05,; also recorded: HLA-DRB1*07:01, HLA-DRB1*08:02,; also recorded: HLA-DRB1*09:01, HLA-DRB1*12:01,; also recorded: HLA-DRB4*01:01"
3,DYSHSMIRDLDFSNM (listed as Leishmania infantum) [SEQ ID NO: 158],"HLA-DRB1*04:01, HLA-DRB1*04:05,; also recorded: HLA-DRB1*07:01, HLA-DRB1*09:01,; also recorded: HLA-DRB1*12:01, HLA-DRB4*01:01,; also recorded: HLA-DPA1*02:01/DPB1*14:01"
4,PSGSDYSHSMIRDLD (listed as Leishmania infantum) [SEQ ID NO: 164],"HLA-DRB1*04:05, HLA-DRB1*07:01,; also recorded: HLA-DRB1*09:01, HLA-DRB5*01:01,; also recorded: LA-DPA1*02:01/DPB1*01:01"
5,SGSDYSHSMIRDLDF (listed as Leishmania infantum) [SEQ ID NO: 167],"HLA-DRB1*01:01, HLA-DRB1*04:05,; also recorded: HLA-DRB1*07:01, HLA-DRB1*09:01,; also recorded: HLA-DRB5*01:01,; also recorded: HLA-DPA1*02:01/DPB1*14:01"
